Reference: patent publication US20240140952A1, “INHIBITORS AND DEGRADERS OF JANUS KINASE 2” (H. LEE MOFFITT CANCER CENTER AND RESEARCH INSTITUTE, INC., priority 2021, published 2024)
Like-named read-outs stand apart in the source and are kept apart here. Each block holds one compound with its values, some of them ahead of it.

Legend:
JAK2 KD [1] = biological target: T1, JAK2 KD (Homo sapiens (Human), UniProt O60674); assay: Differential scanning fluorimetry (DSF) binding studies with purified JAK2 KD
T1 sequence (O60674 840-1132): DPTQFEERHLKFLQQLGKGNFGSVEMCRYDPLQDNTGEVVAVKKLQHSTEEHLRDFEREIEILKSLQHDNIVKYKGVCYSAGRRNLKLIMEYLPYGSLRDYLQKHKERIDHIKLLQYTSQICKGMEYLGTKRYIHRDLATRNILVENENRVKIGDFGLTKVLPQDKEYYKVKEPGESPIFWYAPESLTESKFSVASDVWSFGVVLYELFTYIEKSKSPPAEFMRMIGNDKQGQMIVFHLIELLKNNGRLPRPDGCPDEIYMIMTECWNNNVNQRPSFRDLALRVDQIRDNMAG
Description: To assess the suitability of purified JAK2 KD for SAR studies for drug development campaigns, three series of JAK2 inhibitors (FIG. 2A-C) were subjected to binding studies by differential scanning fluorimetry (DSF).

JAK2 = JAK2 (Homo sapiens (Human), UniProt O60674); assay: Radiometric assay of enzymatic JAK2 activity by Reaction Biology Corp.; assay type: biochemical
JAK2, sequence (O60674 whole entry): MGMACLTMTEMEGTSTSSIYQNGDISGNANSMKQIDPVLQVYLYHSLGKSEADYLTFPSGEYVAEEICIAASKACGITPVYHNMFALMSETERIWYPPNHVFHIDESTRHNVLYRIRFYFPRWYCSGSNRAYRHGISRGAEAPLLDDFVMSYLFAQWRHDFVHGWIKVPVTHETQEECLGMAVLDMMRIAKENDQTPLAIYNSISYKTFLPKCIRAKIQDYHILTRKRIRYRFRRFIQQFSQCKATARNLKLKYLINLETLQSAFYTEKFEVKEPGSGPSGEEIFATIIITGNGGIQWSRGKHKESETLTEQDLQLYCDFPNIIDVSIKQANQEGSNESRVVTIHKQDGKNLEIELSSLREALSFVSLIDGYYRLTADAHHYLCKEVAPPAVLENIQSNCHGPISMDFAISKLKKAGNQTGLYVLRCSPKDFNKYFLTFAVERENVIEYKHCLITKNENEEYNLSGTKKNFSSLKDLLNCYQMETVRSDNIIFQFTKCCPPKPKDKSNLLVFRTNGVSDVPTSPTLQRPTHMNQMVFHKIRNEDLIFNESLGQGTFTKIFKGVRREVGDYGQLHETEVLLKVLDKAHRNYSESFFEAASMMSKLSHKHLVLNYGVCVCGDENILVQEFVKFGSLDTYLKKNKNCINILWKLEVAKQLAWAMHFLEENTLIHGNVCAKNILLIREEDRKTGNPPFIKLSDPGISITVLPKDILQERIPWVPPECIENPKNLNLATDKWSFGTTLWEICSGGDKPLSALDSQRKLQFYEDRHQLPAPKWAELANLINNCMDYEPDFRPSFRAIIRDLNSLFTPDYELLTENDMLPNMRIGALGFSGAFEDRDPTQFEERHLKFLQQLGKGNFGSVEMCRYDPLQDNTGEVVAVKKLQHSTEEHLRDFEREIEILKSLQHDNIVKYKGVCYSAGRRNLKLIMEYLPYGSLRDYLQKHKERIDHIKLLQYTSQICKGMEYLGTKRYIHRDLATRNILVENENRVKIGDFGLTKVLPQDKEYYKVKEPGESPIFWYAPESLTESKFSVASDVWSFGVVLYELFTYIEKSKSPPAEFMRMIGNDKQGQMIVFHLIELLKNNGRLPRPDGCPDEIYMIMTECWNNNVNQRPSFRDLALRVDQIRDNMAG

UKE-1 cells = assay: UKE-1 cell viability assay (CellTiter Blue); conditions: UKE1, 72 h, read-out: UKE-1 cell growth inhibition IC50
Method: Suspension cells were seeded at 20,000 cells per well. […] Cell viability data were analyzed using GraphPad Prism6.

SRC = SRC (Homo sapiens (Human), UniProt P12931); conditions: selectivity; cited from earlier work
SRC, sequence (P12931 whole entry, species assumed): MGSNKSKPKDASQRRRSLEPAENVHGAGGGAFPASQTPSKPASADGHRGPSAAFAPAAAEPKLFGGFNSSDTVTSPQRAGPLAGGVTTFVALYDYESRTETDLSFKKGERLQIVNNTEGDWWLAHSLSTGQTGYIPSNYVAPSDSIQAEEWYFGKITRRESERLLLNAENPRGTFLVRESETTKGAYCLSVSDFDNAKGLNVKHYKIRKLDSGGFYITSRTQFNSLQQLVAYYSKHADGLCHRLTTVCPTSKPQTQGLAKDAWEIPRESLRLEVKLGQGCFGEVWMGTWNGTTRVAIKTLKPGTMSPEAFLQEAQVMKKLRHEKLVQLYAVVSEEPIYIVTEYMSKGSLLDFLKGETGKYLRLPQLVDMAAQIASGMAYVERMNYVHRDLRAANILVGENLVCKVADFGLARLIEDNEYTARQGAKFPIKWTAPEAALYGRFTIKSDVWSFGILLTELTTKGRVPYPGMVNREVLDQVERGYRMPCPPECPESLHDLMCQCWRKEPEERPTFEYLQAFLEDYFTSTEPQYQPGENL

JAK2 KD [2] = biological target: T1, JAK2 KD; assay: Transient expression of JAK2 KD in Expi293F cells, immunoblot densitometry; assay type: cell-based
Method: The construct was expressed using a CMV promoter and contained a Hiss N-terminal affinity tag followed by a TEV cleavage site. Expi293F cells (Invitrogen) were grown, maintained, and treated in shaking culture at 37° C. with 8% CO2 in Expi293 medium (Invitrogen). Recombinant JAK2 was expressed in Expi293F cells using Transporter 5 transfection reagent as described by the manufacturer (PolySciences). One hour after adding the plasmid:transfection complex, varying concentrations of JAK2 inhibitor or transcription enhancer were added. The transfection proceeded for 24 hours before harvest.
Previously, JAK2 KD has been predominantly purified from insect cells; but this process takes several weeks to generate and amplify the baculovirus to produce large enough quantities of purified protein.

[3] = read-out: Biochemical inhibition IC50
[4] = radiometric assay, ± SD from two data sets, read-out: Biochemical inhibition IC50

Compound: N#CCC(C1CCCC1)n1cc(-c2nc(Nc3ccc(C4CCNCC4)cc3)nc3[nH]ccc23)cn1 (racemic) [(rac)-1]
- Binding potential ΔTm (JAK2 KD [1]): 11.8 ± 0.05 °C

Compound: N#CC[C@H](C1CCCC1)n1cc(-c2nc(Nc3ccc(C4CCNCC4)cc3)nc3[nH]ccc23)cn1 [(R)-1, (R)-3-Cyclopentyl-3-(4-(2-((4-(piperidin-4-yl)phenyl)amino)-7H-pyrrolo[2,3-d]pyrimidin-4-yl)-1H-pyrazol-1-yl)propanenitrile]
- IC50 (JAK2): < 0.15 nM
- IC50 (JAK2; [3]): 0.15 ± 0.03 nM

Compound: N#CC[C@@H](C1CCCC1)n1cc(-c2nc(Nc3ccc(C4CCNCC4)cc3)nc3[nH]ccc23)cn1 [(S)-1, (S)-3-Cyclopentyl-3-(4-(2-((4-(piperidin-4-yl)phenyl)amino)-7H-pyrrolo[2,3-d]pyrimidin-4-yl)-1H-pyrazol-1-yl)propanenitrile]
- IC50 (JAK2; [3]): 0.099 ± 0.02 nM

Compound: N#CCCn1cc(-c2nc(Nc3ccc(C4CCNCC4)cc3)nc3[nH]ccc23)cn1 [Compound 2, 3-(4-(2-((4-(Piperidin-4-yl)phenyl)amino)-7H-pyrrolo[2,3-d]pyrimidin-4-yl)-1H-pyrazol-1-yl)propanenitrile]
- IC50 (JAK2; [3]): 0.13 ± 0.048 nM
- IC50 (UKE-1 cells): 4500 ± 5900 nM

Compound: C=CCCn1cc(-c2nc(Nc3ccc(C4CCNCC4)cc3)nc3[nH]ccc23)cn1 [Compound 3, 4-(1-(But-3-en-1-yl)-1H-pyrazol-4-yl)-N-(4-(piperidin-4-yl)phenyl)-7H-pyrrolo[2,3-d]pyrimidin-2-amine]
- IC50 (JAK2; [4]): 0.26 ± 0.04 nM
- IC50 (UKE-1 cells): 620 ± 40 nM

Compound: Cc1cnc(Nc2ccc(C3CCN(C)CC3)c(F)c2)nc1Nc1ccc(F)c(NS(=O)(=O)C(C)(C)C)c1 [Compound 4, N-(2-Fluoro-5-((2-((3-fluoro-4-(1-methylpiperidin-4-yl)phenyl)amino)-5-methylpyrimidin-4-yl)amino)phenyl)-2-methylpropane-2-sulfonamide]
- IC50 (JAK2; [4]): 6.5 ± 3.5 nM

Compound: Cc1cnc(Nc2cc(F)c(C3CCN(C)CC3)c(F)c2)nc1Nc1ccc(F)c(NS(=O)(=O)C(C)(C)C)c1 [Compound 5, N-(5-((2-((3,5-Difluoro-4-(1-methylpiperidin-4-yl)phenyl)amino)-5-methylpyrimidin-4-yl)amino)-2-fluorophenyl)-2-methylpropane-2-sulfonamide]
- IC50 (JAK2; [4]): 8.2 ± 5.7 nM
- IC50 (UKE-1 cells): 150 ± 10 nM

Compound: Cc1cnc(Nc2ccc(C3CCN(C)CC3)c(F)c2)nc1Nc1ccc2c(c1)N(S(=O)(=O)C(C)(C)C)CC2 [Compound 7, N^4-(1-(tert-Butylsulfonyl)indolin-6-yl)-N^2-(3-fluoro-4-(1-methylpiperidin-4-yl)phenyl)-5-methylpyrimidine-2,4-diamine]
- IC50 (JAK2; [3]): 3.6 ± 1.1 nM
- IC50 (UKE-1 cells): 210 ± 20 nM

Compound: Cc1cnc(Nc2ccc(OCCN3CCCC3)cc2)nc1Nc1cccc(S(=O)(=O)NC(C)(C)C)c1 [Fedratinib, reference compound]
- IC50 (UKE-1 cells): 660 ± 60 nM

Compound: N#CC[C@H](C1CCCC1)n1cc(-c2ncnc3[nH]ccc23)cn1 [Ruxolitinib, reference compound]
- Inhibitory activity for JAK2 over SRC (SRC): three orders of magnitudes higher

- JAK2 KD expression increase over ruxolitinib alone (JAK2 KD [2]): four-fold
Compound: CCCC(=O)O [butyric acid]

- JAK2 KD expression increase over ruxolitinib alone (JAK2 KD [2]; HDAC inhibitor during expression alongside ruxolitinib): four-fold
Compound: CCCC(CCC)C(=O)O [valproic acid]
